Earlier results, collected in patent US20190192686A1, “TARGETED NANODROPLET EMULSIONS FOR TREATING CANCER” (The University of Louisville Research Foundation,, priority 2016, published 2019).

Biological target: plasma membrane nucleolin (Homo sapiens, UniProt P19338)
Design: key: ^1: Indicates a good plasma membrane nucleolin-binding GRO.; ^2: Indicates a nucleolin control (non-plasma membrane nucleolin binding)
Conditions: superscript designation in Table 1

Chain of plasma membrane nucleolin (P19338 whole entry): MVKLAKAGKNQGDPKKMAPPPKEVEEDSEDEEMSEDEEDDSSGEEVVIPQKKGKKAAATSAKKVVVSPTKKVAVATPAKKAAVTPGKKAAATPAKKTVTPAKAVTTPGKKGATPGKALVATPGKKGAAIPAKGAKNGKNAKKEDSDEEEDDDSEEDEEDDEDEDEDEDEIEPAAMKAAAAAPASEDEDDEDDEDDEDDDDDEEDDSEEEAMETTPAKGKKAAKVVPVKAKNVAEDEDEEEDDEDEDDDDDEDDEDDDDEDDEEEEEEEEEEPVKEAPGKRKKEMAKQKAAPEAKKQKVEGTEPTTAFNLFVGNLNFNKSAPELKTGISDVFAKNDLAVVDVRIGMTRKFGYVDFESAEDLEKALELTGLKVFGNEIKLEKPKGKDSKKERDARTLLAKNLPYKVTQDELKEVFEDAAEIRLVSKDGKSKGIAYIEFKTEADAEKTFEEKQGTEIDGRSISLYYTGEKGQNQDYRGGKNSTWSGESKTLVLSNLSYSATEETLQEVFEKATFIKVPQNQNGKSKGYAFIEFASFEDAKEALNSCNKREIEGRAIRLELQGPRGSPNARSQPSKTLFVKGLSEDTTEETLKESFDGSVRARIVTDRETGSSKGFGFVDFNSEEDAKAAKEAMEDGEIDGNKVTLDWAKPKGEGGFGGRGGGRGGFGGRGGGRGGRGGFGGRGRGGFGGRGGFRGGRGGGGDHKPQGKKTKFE

Substance	plasma membrane nucleolin binding
GRO15B: ttgggggggg tgggt (TTGGGGGGGGTGGGT; listed as DNA, chemistry not fully specified)	GRO15B^2
GRO26B: ggtggtggtg gttgtggtgg tggtgg	GRO26B^1
GRO G: ggttggtgtg gttgg	GRO G^1
GRO H: ggggttttgg gg (DNA GGGGTTTTGGGG; listed as DNA, chemistry not fully specified)	GRO H^1
GRO I: gggttttggg (DNA GGGTTTTGGG; listed as DNA, chemistry not fully specified)	GRO I^1
GRO J: ggggttttgg ggttttgggg ttttgggg (DNA GGGGTTTTGGGGTTTTGGGGTTTTGGGG; listed as DNA, chemistry not fully specified)	GRO J^1
GRO K: ttggggttgg ggttggggtt gggg (DNA TTGGGGTTGGGGTTGGGGTTGGGG; listed as DNA, chemistry not fully specified)	GRO K^1
GRO M: ggttttggtt ttggttttgg ttttgg (GGTTTTGGTTTTGGTTTTGGTTTTGG; aptamer; listed as DNA, chemistry not fully specified)	GRO M^1
GRO N: tttcctcctc ctccttctcc tcctcctcc (TTTCCTCCTCCTCCTTCTCCTCCTCCTCC; listed as DNA, chemistry not fully specified)	GRO N^2
GRO O: cctcctcctc cttctcctcc tcctcc (CCTCCTCCTCCTTCTCCTCCTCCTCC; aptamer; listed as DNA, chemistry not fully specified)	GRO O^2
GRO P: tggggt	GRO P^2
GRO Q: gcatgct (GCATGCT; listed as DNA, chemistry not given here)	GRO Q^2
GRO R: gcggtttgcg g (GCGGTTTGCGG; listed as DNA, chemistry not given here)	GRO R^2
GRO S: tagg (TAGG; listed as DNA, chemistry not given here)	GRO S^2
GRO T: ggggttgggg tgtggggttg ggg (GGGGTTGGGGTGTGGGGTTGGGG; listed as DNA, chemistry not given here)	GRO T^2
